# Patent US9204640B2, “2-acyloxy-pyrrolin-4-ones” (BAYER INTELLECTUAL PROPERTY GMBH, priority 2011, dated 2015)
# How the values were obtained:
# Assay type in all cases: in vivo
# Myzus persicae = assay: Myzus test (MYZUPE spray treatment); conditions: application rate 500 g/ha, after 5 days, Chinese cabbage leaf discs
# Description: Myzus Test (MYZUPE Spray Treatment) [table] To produce a suitable preparation of active compound, 1 part by weight of active compound is mixed with the stated amount of solvent and emulsifier, and the concentrate is diluted with emulsifier-containing water to the desired concentration. Discs of Chinese cabbage (Brassica pekinensis) infected by all stages of the green peach aphid (Myzus persicae) are sprayed with an active compound preparation of the desired concentration. After 5 days, the effect in % is determined 100% means that all of the aphids have been killed; 0% means that none of the aphids have been killed. Myzus Test (MYZUPE Spray Treatment) To produce a suitable preparation of active compound, 1 part by weight of active compound is mixed with the stated amount of solvent and emulsifier, and the concentrate is diluted with emulsifier-containing water to the desired concentration. Discs of Chinese cabbage (Brassica pekinensis) infected by all stages of the green peach aphid (Myzus persicae) are sprayed with an active compound preparation of the desired concentration. After the desired period of time, the activity in % is determined. 100% means that all of the aphids have been killed; 0% means that none of the aphids have been killed.
# Lolium multiflorum [1] = assay: Herbicidal post-emergence action, LOLMU
# Description: (§1) 2. Herbicidal Post-Emergence Action
# (§2) • Seeds of monocotyledonous and dicotyledonous weed and crop plants are placed in sandy loam in wood-fiber pots, covered with soil and cultivated in a greenhouse under good growth conditions. 2 to 3 weeks after sowing, the test plants are treated at the one-leaf stage. The test compounds, formulated as wettable powders (WP), are then, with a water application rate of 600 l/ha (converted), with 0.2% of wetting agent added, sprayed at various dosages onto the green parts of the plants. After the test plants have been kept in the greenhouse under optimum growth conditions for about 3 weeks, the activity of the preparations is rated visually in comparison to untreated controls (herbicidal activity in percent: 100% activity=the plants have died, 0% activity=like control plants). • In addition to the compounds mentioned above, the following compounds show an activity of 90-100% against Alopecurus myosuroides, Avena fatua, Digitaria sanguinalis, Echinocloa crus-galli, Lolium multiflorum, Setaria viridis and Sorghum halapense when applied by the post-emergence method at 320 g/ha: I-a-2, I-a-4, I-a-5, I-a-7, I-a-9, I-a-10, I-a-11, I-a-12, I-a-13, I-a-15. • In addition to the compounds mentioned above, the following compounds show an activity of 90-100% against Alopecurus myosuroides, Avena fatua, Echinocloa crus-galli, Lolium multiflorum and Setaria viridis when applied by the post-emergence method at 80 g/ha: I-a-1, I-b-2.
# (§3) • Seeds of monocotyledonous and dicotyledonous weed plants and crop plants are placed in wood-fiber pots in sandy loam and covered with soil. The test compounds, formulated in the form of wettable powders (WP) or emulsion concentrates (EC), are then, as an aqueous suspension with a water application rate of 600-800 l/ha (converted), with 0.1-0.2% of wetting agent added, applied at various dosages to the surface of the covering soil. • After the treatment, the pots are placed in a greenhouse and kept under good growth conditions for the test plants. […] Herbicidal Post-Emergence Action (Post) • Seeds of monocotyledonous and dicotyledonous weed and crop plants are placed in sandy loam in wood-fiber pots, covered with soil and cultivated in a greenhouse under good growth conditions. 2-3 weeks (stages 10-13 according to the BBCH scale) after sowing, the test plants are treated at a height of 5-10 cm. The test compounds, formulated as wettable powders (WP) or emulsion concentrates (EC), are then, with a water application rate of 600-800 l/ha (converted), with 0.1-0.2% of wetting agent added, sprayed at various dosages onto the green parts of the plants.
# (§4) AVEFA: Avena fatua LOLMU: Lolium multiflorum SETVI: Setaria viridis CHEAL: Chenopodium album VIOTR: Viola tricolor VERPE: Veronica persica ORYSA: Oryza sativa TRZAS: Triticum aestivum ZEAMX: Zea mays ALOMY: Alopecurus myosuroides DIGSA: Digitaria sanguinalis ECHCG: Echinocloa crus-galli SORHA: Sorghum halepense AVESA: Avena sativa AMARE: Amaranthus retroflexus SINAL: Sinapis alba STEME: Stellaria media
# Setaria viridis [2] = assay: Herbicidal post-emergence action, SETVI
# Description: as §1, §2, §3, §4
# Avena sativa = assay: Herbicidal post-emergence action, AVESA; conditions: 320 g/ha
# Source text: as §3, with “the plants. […]” for “the plants.”
# Amaranthus retroflexus = assay: Herbicidal post-emergence action, AMARE; conditions: 320 g/ha
# Source text: as §3, with “the plants. […]” for “the plants.”
# Sinapis alba = assay: Herbicidal post-emergence action, SINAL; conditions: 320 g/ha
# Source text: as §3, with “the plants. […]” for “the plants.”
# Stellaria media = assay: Herbicidal post-emergence action, STEME; conditions: 320 g/ha
# Source text: as §3, with “the plants. […]” for “the plants.”
# Avena fatua [3] = assay: Herbicidal pre-emergence action, AVEFA; conditions: Avena fatua, pre-emergence
# Source text: (§5) 1. Herbicidal Pre-Emergence Action
# (§6) • Seeds of monocotyledonous and dicotyledonous weed plants and crop plants are placed in wood-fiber pots in sandy loam and covered with soil. The test compounds, formulated in the form of wettable powders (WP), are then, as an aqueous suspension with a water application rate of 600 l/ha (converted), with 0.2% of wetting agent added, applied at various dosages to the surface of the covering soil. • After the treatment, the pots are placed in a greenhouse and kept under good growth conditions for the test plants. The visual assessment of the damage to the test plants is carried out after a trial period of about 3 weeks by comparison with untreated controls (herbicidal activity in percent: 100% activity=the plants have died, 0% activity=like control plants). • In addition to the compounds mentioned above, the following compounds show an activity of 90-100% against Alopecurus myosuroides, Digitaria sanguinalis, Echinocloa crus-galli, Lolium multiflorum, Setaria viridis and Sorghum halapense when applied by the pre-emergence method at 320 g/ha of a.i.: I-a-2, I-a-10, I-a-11, I-a-12.
# (§7) 1. Herbicidal Pre-Emergence Action (Pre)
# (§8) • Seeds of monocotyledonous and dicotyledonous weed plants and crop plants are placed in wood-fiber pots in sandy loam and covered with soil. […]
# Lolium multiflorum [4] = assay: Herbicidal pre-emergence action, LOLMU; conditions: Lolium multiflorum, pre-emergence
# Source text: as §5, §6, §7, §8
# Setaria viridis [5] = assay: Herbicidal pre-emergence action, SETVI; conditions: Setaria viridis, pre-emergence, 320 g/ha
# Source text: as §5, §6, §7, §3, §4
# Chenopodium album = assay: Herbicidal pre-emergence action, CHEAL; conditions: Chenopodium album, pre-emergence
# Source text: as §7
# as §3, with “the plants. […]” for “the plants.”
# Viola tricolor = assay: Herbicidal pre-emergence action, VIOTR; conditions: Viola tricolor, pre-emergence
# Source text: as §7
# as §3, with “the plants. […]” for “the plants.”
# Veronica persica [6] = assay: Herbicidal pre-emergence action, VERPE; conditions: Veronica persica, pre-emergence
# Source text: as §7
# as §3, with “the plants. […]” for “the plants.”
# Alopecurus myosuroides = assay: Herbicidal post-emergence action, ALOMY; conditions: Alopecurus myosuroides, post-emergence, 80 g/ha
# Description: as §1, §2, §3, §4
# Avena fatua [7] = assay: Herbicidal post-emergence action, AVEFA; conditions: Avena fatua, post-emergence, 80 g/ha
# Description: as §1, §2, §3, §4
# Digitaria sanguinalis = assay: Herbicidal post-emergence action, DIGSA; conditions: Digitaria sanguinalis, post-emergence, 80 g/ha
# Description: as §1, §2, §3, §4
# Echinocloa crus-galli = assay: Herbicidal post-emergence action, ECHCG; conditions: Echinochloa crus-galli, post-emergence, 80 g/ha
# Description: as §1, §2, §3, §4
# Sorghum halepense = assay: Herbicidal post-emergence action, SORHA; conditions: Sorghum halepense, post-emergence
# Description: as §1, §2, §3, §4
# Veronica persica [8] = assay: Herbicidal post-emergence action, VERPE; conditions: Veronica persica, post-emergence
# Source text: as §3, with “the plants. […]” for “the plants.”
# Oryza sativa = assay: Herbicidal post-emergence action, ORYSA; conditions: Oryza sativa, post-emergence, 80 g/ha
# Source text: as §3, §4
# Triticum aestivum = assay: Herbicidal post-emergence action, TRZAS; conditions: Triticum aestivum, post-emergence, 80 g/ha
# Source text: as §3, §4
# Zea mays = assay: Herbicidal post-emergence action, ZEAMX; conditions: Zea mays, post-emergence, 80 g/ha
# Source text: as §3, §4
compound,measurement,setting,value
CCc1cc(Cl)cc(OC)c1C1=C(OC(=O)C(C)(C)C)NC2(CCC(OC)CC2)C1=O (stereo not drawn) [I-a-9],effect in % (aphids killed),Myzus persicae,80%
same,% Activity LOLMU,Lolium multiflorum [1]; 320 g/ha,100%
same,% Activity SETVI,Setaria viridis [2]; 320 g/ha,100%
same,% Activity AVESA,Avena sativa,90%
same,% Activity AMARE,Amaranthus retroflexus,40%
same,% Activity SINAL,Sinapis alba,60%
same,% Activity STEME,Stellaria media,40%
CCc1cc(Cl)cc(Cl)c1C1=C(OC(=O)C(C)(C)C)C2(CCC(C)CC2)NC1=O (stereo not drawn) [I-b-12 known from WO 04/065366],inhibition at 320 g/ha,Avena fatua [3],0%
same,inhibition at 320 g/ha,Lolium multiflorum [4],40%
same,inhibition at 320 g/ha,Setaria viridis [5],40%
same,inhibition at 320 g/ha,Chenopodium album,0%
same,inhibition at 320 g/ha,Viola tricolor,0%
same,inhibition at 320 g/ha,Veronica persica [6],0%
CCc1cccc(Cl)c1C1=C(OC(=O)C(C)(C)C)C2(CCC(C)CC2)NC1=O (stereo not drawn) [I-b-12 known from WO 04/065366],inhibition at 80 g/ha,Alopecurus myosuroides,0%
same,inhibition at 80 g/ha,Avena fatua [7],0%
same,inhibition at 80 g/ha,Digitaria sanguinalis,30%
same,inhibition at 80 g/ha,Echinocloa crus-galli,40%
same,inhibition at 80 g/ha,"Lolium multiflorum [1]; Lolium multiflorum, post-emergence, 80 g/ha",0%
same,inhibition at 80 g/ha,"Setaria viridis [2]; Setaria viridis, post-emergence, 80 g/ha",30%
same,inhibition at 80 g/ha,Sorghum halepense,0%
same,inhibition at 80 g/ha,Veronica persica [8],0%
same,inhibition at 80 g/ha,Oryza sativa,0%
same,inhibition at 80 g/ha,Triticum aestivum,0%
same,inhibition at 80 g/ha,Zea mays,0%
